# Source: ChEMBL document CHEMBL1150140, “Three new C-14 oxygenated taxanes from the wood of Taxus yunnanensis” (J Nat Prod, 2002)
# Experiments:
# HT-1080 = test: Antiproliferative activity against human HT1080 cells by MTT assay; assay type: functional, cell-based
# [1] = Antiproliferative activity against mouse Colon 26-L5 cells by MTT assay; assay type: functional, cell-based
SMILES,EC50 (HT-1080) [µg/mL],EC50 [1] [µg/mL]
O=c1[nH]cc(F)c(=O)[nH]1 [FLUOROURACIL],0.29,0.07
C=C1[C@@H](OC(C)=O)CC[C@]2(C)[C@@H]1C[C@@H]1C[C@H](OC(C)=O)C(C)=C([C@@H](OC(C)=O)[C@@H]2OC(C)=O)C1(C)C [TAXUSIN],61.4,51.7
C=C1[C@@H](O)CC[C@@]2(C)C[C@H](O)C3=C(C)C[C@H](OC(=O)[C@@H](C)CC)[C@@H]([C@@H](OC(C)=O)[C@H]12)C3(C)C [HONGDOUSHAN C],61.1,3.8
C=C1[C@@H](OC(C)=O)CC[C@@]2(C)C[C@H](OC(C)=O)C3=C(C)C[C@H](OC(=O)[C@@H](C)CC)[C@@H]([C@@H](OC(C)=O)[C@H]12)C3(C)C,84.9,84.1
CC(=O)O[C@H]1C[C@]2(C(C)(C)O)C(=C1C)[C@@H](O)[C@@H](OC(=O)c1ccccc1)[C@]1(C)[C@@H](OC(C)=O)C[C@H](O)[C@@]3(OC(C)=O)CO[C@H]2[C@H]31 [TAXUYUNNANINE E],> 100,> 100
COc1cc([C@H]2c3cc(O)c(OC)cc3C[C@H]3C(=O)OC[C@H]23)ccc1O [ALPHA-CONIDENDRIN],> 100,> 100
C=C1[C@@H](OC(C)=O)CC[C@@]2(C)C[C@H](O)C3=C(C)C[C@H](OC(=O)CC)[C@@H]([C@@H](OC(C)=O)[C@H]12)C3(C)C [HONGDOUSHAN B],> 100,70.4
C=C1[C@@H](OC(C)=O)CC[C@@]2(C)C[C@H](O)C3=C(C)C[C@H](OC(=O)[C@@H](C)CC)[C@@H]([C@@H](OC(C)=O)[C@H]12)C3(C)C [HONGDOUSHAN A],61,40.1
COc1cc(C[C@@H](CO)[C@H](CO)Cc2ccc(O)c(OC)c2)ccc1O [(+)-SECOISOLARICIRESINOL],5.9,60.2
